In the first experiment the target is T1, Human TRPC6 (Homo sapiens, UniProt Q9Y210).
T1 construct: expressed in transfected cells
T1 sequence (Q9Y210 1-931): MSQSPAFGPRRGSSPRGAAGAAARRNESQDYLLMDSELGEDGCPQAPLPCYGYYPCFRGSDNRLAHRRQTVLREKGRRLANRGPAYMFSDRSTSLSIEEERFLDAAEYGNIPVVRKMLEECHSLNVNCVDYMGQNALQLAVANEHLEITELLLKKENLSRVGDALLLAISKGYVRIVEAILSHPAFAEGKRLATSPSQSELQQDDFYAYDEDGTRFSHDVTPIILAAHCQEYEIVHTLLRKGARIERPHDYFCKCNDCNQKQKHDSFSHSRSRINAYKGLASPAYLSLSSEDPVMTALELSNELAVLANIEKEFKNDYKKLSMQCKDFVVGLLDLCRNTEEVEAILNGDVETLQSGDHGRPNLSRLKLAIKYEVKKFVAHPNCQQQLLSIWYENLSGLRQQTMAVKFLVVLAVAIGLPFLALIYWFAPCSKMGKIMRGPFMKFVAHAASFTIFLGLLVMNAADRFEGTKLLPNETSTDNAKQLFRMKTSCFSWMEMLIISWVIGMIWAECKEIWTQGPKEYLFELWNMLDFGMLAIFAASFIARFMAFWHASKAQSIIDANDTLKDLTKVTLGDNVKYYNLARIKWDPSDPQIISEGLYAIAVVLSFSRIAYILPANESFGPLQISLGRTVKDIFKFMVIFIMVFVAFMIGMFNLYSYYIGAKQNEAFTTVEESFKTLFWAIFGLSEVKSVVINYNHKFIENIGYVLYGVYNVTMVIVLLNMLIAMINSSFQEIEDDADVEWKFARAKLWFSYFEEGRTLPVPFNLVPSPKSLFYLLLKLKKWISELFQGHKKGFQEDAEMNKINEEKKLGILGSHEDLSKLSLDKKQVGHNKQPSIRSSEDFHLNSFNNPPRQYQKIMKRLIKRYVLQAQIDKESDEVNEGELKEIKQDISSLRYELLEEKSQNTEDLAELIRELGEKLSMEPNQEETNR
Put plainly: Evaluation of TRPC6 channel inhibitory activity (1), FLIPR Calcium 5 Assay Kit, OAG stimulation (Compound Nos. 1-1293). The format is cell-based.
Conditions: not given
Put shortly:
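TRPC6 (human) stable cells, 24 h culture; Ca5 no-wash dye + probenecid 30 min; cpd 20 min; OAG 30 μM final; ΔF (pre-cpd min to post-OAG max); 0%/100% = no cpd / no cpd + no OAG; 4PL → pIC50, binned +/++/+++.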
With `N#Cc1ccc(-c2ncc(CCN)cn2)c(Oc2cc(N3C4CCC3CC4)ncc2C#N)c1` [compound 748, 4-[2-[5-(2-aminoethyl)pyrimidin-2-yl]-5-cyanophenoxy]-6-(7-azabicyclo[2.2.1]heptan-7-yl)pyridine-3-carbomtrile], the IC50 is less than 10 nM.

The experiment is the same for the next values; noted with them: Human TRPC6 stably-expressing cells, OAG 30 μM, FLIPR Calcium 5 Assay Kit; read-out: Inhibitory activity (pIC50 class) (converted).
On to `CCCc1cc(Oc2cc(C#N)ccc2-c2ncc(CCN)cn2)n(C)n1` [Compound 260, 4-[5-(2-aminoethyl)pyrimidin-2-yl]-3-(2-methyl-5-propylpyrazol-3-yl)oxybenzonitrile], for which the IC50 was less than 10 nM.
On the same count and under the same terms, the value for `Cc1nc(Oc2cc(C#N)ccc2-c2ccc(CCN)cc2)cc(-c2ccnn2C)n1` [Compound 20, 4-[4-(2-aminoethyl)phenyl]-3-[2-methyl-6-(2-methylpyrazol-3-yl)pyrimidin-4-yl]oxybenzonitrile] was 10 to 1000 nM; that for `Cc1nc(-c2ccccc2)cn1Cc1cc(C#N)ccc1-c1ncc(CCN)cn1` [compound 1137, 4-[5-(2-aminoethyl)pyrimidin-2-yl]-3-[(2-methyl-4-phenylimidazol-1-yl)methyl]benzonitrile] was less than 10 nM.
With `C[C@@H](N)c1cnc(-c2ccc(C#N)cc2Oc2cc(-c3ccccn3)nn2C)nc1` [compound 808, 4-[5-[(1R)-1-aminoethyl]pyrimidin-2-yl]-3-(2-methyl-5-pyridin-2-ylpyrazol-3-yl)oxybenzonitrile], the IC50 was less than 10 nM.
Still for that read-out and setting: for `Cn1nc(C2CC2)cc1Oc1cc(C#N)ccc1-c1ccc(N)cn1` [compound 416, 4-(5-aminopyridin-2-yl)-3-(5-cyclopropyl-2-methylpyrazol-3-yl)oxybenzonitrile] the value was greater than 1000 nM; for `Cc1cc(Oc2cc(C#N)ccc2-c2ccc([C@H](O)CN)cn2)cc(N2CCO[C@@H](C)C2)n1` [compound 529, 4-[5-[(1S)-2-amino-1-hydroxyethyl]pyridin-2-yl]-3-[2-methyl-6-[(2S)-2-methylmorpholin-4-yl]pyridin-4-yl]oxybenzonitrile], less than 10 nM; for `Cc1nc(N2CCOCC2)cc(N(C)c2cc(C#N)ccc2-c2ccc3c(c2)COC32CN(C)C2)n1` [Compound 5, 3-[methyl-(2-methyl-6-morpholin-4-ylpyrimidin-4-yl)amino]-4-(1′-methylspiro[3H-2-benzofuran-1,3′-azetidin]-5-yl)benzonitrile], greater than 1000 nM.
The same measure, in the same setting: the value for `COCCOc1cc(Oc2cc(C#N)ccc2-c2ncc(CCN)cn2)nc(C)n1` [compound 890, 4-[5-(2-aminoethyl)pyrimidin-2-yl]-3-[6-(2-methoxyethoxy)-2-methylpyrimidin-4-yl]oxybenzonitrile] was 10 to 1000 nM; that for `Cc1cc(Sc2cc(C#N)ccc2-c2ncc(CN)cn2)cc(N2CCOCC2)n1` [compound 1261, 4-[5-(aminomethyl)pyrimidin-2-yl]-3-(2-methyl-6-morpholin-4-ylpyridin-4-yl)sulfanylbenzonitrile] was greater than 1000 nM; that for `Cn1nc(C2CC2)cc1Oc1cc(C#N)ccc1-c1ncc(CN)o1` [compound 584, 4-[5-(aminomethyl)-1,3-oxazol-2-yl]-3-(5-cyclopropyl-2-methylpyrazol-3-yl)oxybenzonitrile] was greater than 1000 nM.
Take `Cc1nc(NCC(F)(F)F)cc(Oc2cc(C#N)ccc2-c2ncc(CN)cn2)n1` [compound 640, 4-[5-(aminomethyl)pyrimidin-2-yl]-3-[2-methyl-6-(2,2,2-trifluoroethylamino)pyrimidin-4-yl]oxybenzonitrile]: the IC50 is 10 to 1000 nM.
Same read-out and setting: for `N#Cc1ccc(-c2ccc(CCN)cc2)c(Oc2cnnc(O[C@H]3CCC[C@@H]3O)c2)c1` [Compound 124, 4-[4-(2-aminoethyl)phenyl]-3[6-[(1S,2S)-2-hydroxycyclopentyl]oxypyridazin-4-yl]oxybenzonitrile] the value was 10 to 1000 nM.
`COCCOc1cc(Oc2cc(C#N)ccc2-c2ncc(CCN)cn2)cc(C)n1` [compound 492, 4-[5-(2-aminoethyl)pyrimidin-2-yl]-3-[2-(2-methoxyethoxy)-6-methylpyridin-4-yl]oxybenzonitrile]: the IC50 was 10 to 1000 nM.
Still for that read-out and setting: for `Cc1nc(C(C)C)cn1Cc1cc(C#N)ccc1-c1ncc(CN)cn1` [compound 1172, 4-[5-(aminomethyl)pyrimidin-2-yl]-3-[(2-methyl-4-propan-2-ylimidazol-1-yl)methyl]benzonitrile] the value was 10 to 1000 nM; for `Cn1nc2c(c1Oc1cc(C#N)ccc1-c1ncc(CN)cn1)CCC2` [compound 678, 4-[5-(aminomethyl)pyrimidin-2-yl]-3-[(2-methyl-5,6-dihydro-4H-cyclopenta[c]pyrazol-3-yl)oxy]benzonitrile], greater than 1000 nM.
The same measure, in the same setting: for `Cn1nc(-c2ccccc2)cc1Oc1cc(C#N)ccc1-c1ncc(C(O)CN)s1` (centres unmarked) [Compound 225, 4-[5-(2-amino-1-hydroxyethyl)-1,3-thiazol-2-yl]-3-(2-methyl-5-phenylpyrazol-3-yl)oxybenzonitrile] the value was less than 10 nM; for `Cc1cc(Oc2cc(C#N)ccc2-c2ccc([C@H](O)CN)cn2)cc(N2CCOCC2)n1` [compound 429, 4-[5-[(1S)-2-amino-1-hydroxyethyl]pyridin-2-yl]-3-(2-methyl-6-morpholin-4-ylpyridin-4-yl)oxybenzonitrile], less than 10 nM; for `N#Cc1ccc(-c2ncc(CCN)cn2)c(C(=O)c2nnc(N3CCOCC3)o2)c1` [compound 1092, 4-[5-(2-aminoethyl)pyrimidin-2-yl]-3-(5-morpholin-4-yl-1,3,4-oxadiazole-2-carbonyl)benzonitrile], 10 to 1000 nM.
Still for that read-out and setting: the value for `Cc1cc(Oc2cc(C#N)ccc2-c2ccc(CCN)nc2)cc(N2CCOCC2)n1` [Compound 172, 4-[6-(2-aminoethyl)pyridin-3-yl]-3-(2-methyl-6-morpholin-4-ylpyridin-4-yl)oxybenzonitrile] was less than 10 nM; that for `Cc1nc(Oc2cc(C#N)ccc2-n2cc([C@H](O)CN)cn2)cc(-c2ccccc2C#N)n1` [compound 344, 4-[4-[(1S)-2-amino-1-hydroxyethyl]pyrazol-1-yl]-3-[6-(2-cyanophenyl)-2-methylpyrimidin-4-yl]oxybenzonitrile] was less than 10 nM; that for `CCCCOc1cc(Oc2cc(C#N)ccc2-c2ccc(CCN)cc2)nc(C)n1` [Compound 38, 4-[4-(2-aminoethyl)phenyl]-3-(6-butoxy-2-methylpyrimidin-4-yl)oxybenzonitrile] was greater than 1000 nM.
In the case of `Cc1nc(OCCC(F)(F)F)cc(Oc2cc(C#N)ccc2-c2ccc(CCN)cc2)n1` [Compound 37, 4-[4-(2-aminoethyl)phenyl]-3-[2-methyl-6-(3,3,3-trifluoropropoxy)pyrimidin-4-yl]oxybenzonitrile], the IC50 is greater than 1000 nM.
On the same count and under the same terms, for `Cc1nc(Oc2cc(C#N)ccc2-c2ncc(CN)cn2)cc(N(C)C(C)C)n1` [compound 792, 4-[5-(aminomethyl)pyrimidin-2-yl]-3-[2-methyl-6-[methyl(propan-2-yl)amino]pyrimidin-4-yl]oxybenzonitrile] the value was 10 to 1000 nM; for `Cn1nc(-c2ccccc2)cc1Oc1cc(C#N)ccc1-c1ccc(CCNC2COC2)cn1` [Compound 207, 3-(2-methyl-5-phenylpyrazol-3-yl)oxy-4-[5-[2-(oxetan-3 ylamino)ethyl]pyridin-2-yl]benzonitrile], 10 to 1000 nM.
The same measure, in the same setting: the value for `Cc1nn(CC2CC2)cc1C(=O)c1cc(C#N)ccc1-c1ncc(CCN)cn1` [compound 1033, 4-[5-(2-aminoethyl)pyrimidin-2-yl]-3-[1-(cyclopropylmethyl)-3-methylpyrazole-4-carbonyl]benzonitrile] was less than 10 nM.

Values taken from patent publication US20230167073A1 (Teijin Pharma Limited, priority 2020, published 2023).
